According to patent US10794897B2, “System and methods for predicting drug-induced inotropic and pro-arrhythmia risk” (AnaBios Corporation, priority 2017, dated 2020):
Where two headings read alike, the source gives them in different places. Each block holds one compound with its values, some of them ahead of it.

What was measured:
[1] = test system: human cardiomyocyte preparation; conditions: for concentration from which ACs were induced: human
[2] = test system: ex vivo human ventricular trabeculae preparation
[3] = test system: ex vivo human ventricular trabeculae preparation; test: ex vivo human ventricular trabeculae force of contraction
[4] = test system: human cardiomyocyte preparation; test: human cardiomyocyte contractility transients (system 20 validation with reference drugs); conditions: human cardiomyocytes

Structure (SMILES): COc1cc(N)c(Cl)cc1C(=O)NC1CCN(CCCOc2ccc(F)cc2)CC1OC (stereo not shown) [cisapride]
AC (after-contraction) incidence [1]: seen starting at the fETPC | sarcomere shortening [1]: inhibited

Structure (SMILES): CC[C@H]1OC(=O)[C@H](C)[C@@H](O[C@H]2C[C@@](C)(OC)[C@@H](O)[C@H](C)O2)[C@H](C)[C@@H](O[C@@H]2O[C@H](C)C[C@H](N(C)C)[C@H]2O)[C@](C)(OC)C[C@@H](C)C(=O)[C@H](C)[C@@H](O)[C@]1(C)O [clarithromycin]
sarcomere shortening [1]: inhibited | concentration from which ACs were induced [1]: 10 -fold the fETPC

Structure (SMILES): O=c1[nH]c2ccccc2n1CCCN1CCC(n2c(=O)[nH]c3cc(Cl)ccc32)CC1 [domperidone]
AC (after-contraction) incidence [1]: seen starting at the fETPC | sarcomere shortening [1]: inhibited

Structure (SMILES): C=C[C@H]1C[N@@]2CC[C@H]1C[C@@H]2[C@@H](O)c1ccnc2ccc(OC)cc12 [quinidine]
AC (after-contraction) incidence [1]: concentration-dependent increases | CE (contractility escape) incidence [1]: concentration-dependent increases | TR90 (time to 90% relaxation) [1]: prolongation

Structure (SMILES): COc1ccc(CCN(C)CCCC(C#N)(c2ccc(OC)c(OC)c2)C(C)C)cc1OC (stereo not shown) [verapamil]
IC50 ([3]; Homo sapiens, read-out: IC50 for decrease of MAC): 1.46 µM | AC incidence ([4]; up to 222-fold the fETPC): neither AC or CE incidence | CE incidence ([4]; up to 222-fold the fETPC): neither AC or CE incidence | TR90 ([4]; up to 222-fold the fETPC): no change

Continued, in another order:

sarcomere shortening [1]: no effects | concentration from which ACs were induced [1]: 10 -fold the fETPC | TR90 [2]: concentration-dependent increase
Structure (SMILES): CC(C)NCC(O)c1ccc(NS(C)(=O)=O)cc1 (racemic) [sotalol, d,l-sotalol]

MAC (maximum amplitude of force of contraction) ([3]; human ventricular trabeculae): no effects | TR90 ([3]; human ventricular trabeculae): concentration-dependent increase | sarcomere shortening [1]: no effects | concentration from which ACs were induced [1]: 10 -fold the fETPC
Structure (SMILES): CN(CCOc1ccc(NS(C)(=O)=O)cc1)CCc1ccc(NS(C)(=O)=O)cc1 [dofetilide]
AC incidence ([3]; human ventricular trabeculae, starting at the fETPC): observed starting at the fETPC

TR90 [1]: decreased | TR90 [2]: decrease
Structure (SMILES): CC(C)NCC(O)c1ccc(O)c(O)c1 (stereo not shown) [isoproterenol]
increase of MAC ([3]; human ventricular trabeculae, at 0.03 μM): 315% | AC incidence [1]: induced no AC | CE incidence [1]: no CE incidence | FSF ([4]; positive inotropes): increased | maximum contraction velocity ([4]; positive inotropes): increased | maximum contraction velocity time ([4]; positive inotropes): increased | maximum relaxation velocity ([4]; positive inotropes): increased | maximum relaxation velocity time ([4]; positive inotropes): no effects | peak height ([4]; positive inotropes): increased | time to 10% peak ([4]; positive inotropes): decreased | time to 50% peak ([4]; positive inotropes): decreased | time to peak ([4]; positive inotropes): no effects | AC incidence [2]: did not induce any ACs

TR90 ([4]; positive inotropes): no effect
Structure (SMILES): C[C@@H]1CC(=O)NN=C1c1ccc(NN=C(C#N)C#N)cc1 [levosimendan]
AC incidence ([4]; at 10-fold the fETPC): levosimendan did | CE incidence ([4]; positive inotropes): no CE incidence | FSF ([4]; positive inotropes): increased | maximum contraction velocity ([4]; positive inotropes): increased | maximum contraction velocity time ([4]; positive inotropes): no effect | maximum relaxation velocity ([4]; positive inotropes): increased | maximum relaxation velocity time ([4]; positive inotropes): no effects | peak height ([4]; positive inotropes): increased | time to 10% peak ([4]; positive inotropes): no effect | time to 50% peak ([4]; positive inotropes): no effect | time to peak ([4]; positive inotropes): no effects

sarcomere shortening [1]: inhibited
Structure (SMILES): Cc1cccc(C)c1OCC(C)N (stereo not shown) [mexiletine]
AC incidence [1]: induced no ACs

sarcomere shortening [1]: inhibited
Structure (SMILES): COc1ccccc1OCC(O)CN1CCN(CC(=O)Nc2c(C)cccc2C)CC1 (stereo not shown) [ranolazine]
AC incidence [1]: induced no ACs
